33 compounds from ChEMBL document CHEMBL1152349, “Optimization of 2-piperidin-4-yl-acetamides as melanin-concentrating hormone receptor 1 (MCH-R1) antagonists: Designing out hERG inhibition” (Bioorg Med Chem Lett, 2009) can be followed below.

Data set [1] in a line: Dissociation constant, pKa by pressure assisted capillary electrophoresis. The data set is classed as physicochemical.
Data set [2] concerns the target T1, Melanin-concentrating hormone receptor 1 (Homo sapiens, UniProt Q99705). Nature of the data set: Antagonist activity at human MCHR1 expressed in HEK293 cells assessed as [35S]GTPgammaS accumulation. The data set is classed as functional, cell-based. A general note: GTPγS resists hydrolysis and so accumulates on activated G proteins.
Another data set deals with Mus musculus. Nature of the data set: Antiobesity activity in DIO mouse model assessed as reduction in weight at 50 umol/kg, po once daily after 21 days. The data set is classed as functional. On the set-up: scale not given: the % may be the effect or the level left.
Data set [3] addresses T1, Melanin-concentrating hormone receptor 1. Briefly: Displacement of [125I]MCH from human MCHR1 expressed in HEK293 cells. The data set is classed as cell-based. (In general: Displacement assays read how much labelled ligand stays bound in the presence of the test substance.)
Data set [4] deals with T2, Voltage-gated inwardly rectifying potassium channel KCNH2 (Homo sapiens, UniProt Q12809). Nature of the data set: Inhibition of human ERG expressed in CHO cells by patch clamp assay. The data set is classed as cell-based. (In patch-clamp work, channel activity is measured electrically.)
In the next data set the test system is Liver microsomes. Briefly: Intrinsic clearance in human liver microsomes. The data set is classed as ADME, Microsome.
The target of data set [5] is Sodium channel protein type 5 subunit alpha (Homo sapiens, UniProt Q14524). Nature of the data set: Inhibition of NaV1.5 sodium channel expressed in CHO cells by patch clamp assay. The format is cell-based.
Data set [6] has as its target Melanin-concentrating hormone receptor 2 (Homo sapiens, UniProt Q969V1). Nature of the data set: Displacement of [125I]MCH from human MCHR2 expressed in CHO cells. The format is cell-based.
The target in data set [7] is T2, Voltage-gated inwardly rectifying potassium channel KCNH2. Briefly: Inhibition of human ERG activation expressed in CHO cells by rubidium efflux assay. The data set is classed as cell-based.

T2 sequence (Q12809 whole entry): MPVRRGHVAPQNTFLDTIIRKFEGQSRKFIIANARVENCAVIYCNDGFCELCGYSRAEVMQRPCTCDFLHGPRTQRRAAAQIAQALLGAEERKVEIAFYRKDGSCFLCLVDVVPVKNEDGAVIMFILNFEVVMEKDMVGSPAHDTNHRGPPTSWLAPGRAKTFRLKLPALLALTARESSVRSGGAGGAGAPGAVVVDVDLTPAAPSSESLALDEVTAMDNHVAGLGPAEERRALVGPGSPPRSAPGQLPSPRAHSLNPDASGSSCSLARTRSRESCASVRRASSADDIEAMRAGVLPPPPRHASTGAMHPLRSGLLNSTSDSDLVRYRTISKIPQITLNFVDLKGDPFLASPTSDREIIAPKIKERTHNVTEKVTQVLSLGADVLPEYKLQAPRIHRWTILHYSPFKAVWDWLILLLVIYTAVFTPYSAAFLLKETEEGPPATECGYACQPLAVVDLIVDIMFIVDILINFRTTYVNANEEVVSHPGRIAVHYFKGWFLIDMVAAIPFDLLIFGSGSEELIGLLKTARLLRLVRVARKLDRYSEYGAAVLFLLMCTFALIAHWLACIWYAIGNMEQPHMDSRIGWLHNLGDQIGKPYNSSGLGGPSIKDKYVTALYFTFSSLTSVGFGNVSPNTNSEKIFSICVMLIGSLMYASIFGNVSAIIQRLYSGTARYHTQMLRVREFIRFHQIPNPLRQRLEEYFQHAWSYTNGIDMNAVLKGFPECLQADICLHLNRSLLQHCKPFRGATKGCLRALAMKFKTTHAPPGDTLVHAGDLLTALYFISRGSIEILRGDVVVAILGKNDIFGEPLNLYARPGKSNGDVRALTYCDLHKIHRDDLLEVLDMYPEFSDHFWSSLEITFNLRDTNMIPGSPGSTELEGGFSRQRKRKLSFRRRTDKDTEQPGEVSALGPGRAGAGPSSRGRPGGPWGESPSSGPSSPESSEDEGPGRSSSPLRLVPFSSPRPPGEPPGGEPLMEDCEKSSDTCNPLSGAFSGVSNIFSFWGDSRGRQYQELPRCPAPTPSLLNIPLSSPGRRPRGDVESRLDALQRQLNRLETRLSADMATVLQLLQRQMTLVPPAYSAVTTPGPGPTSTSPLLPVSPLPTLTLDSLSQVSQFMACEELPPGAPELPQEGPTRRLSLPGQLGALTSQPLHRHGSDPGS
T1 sequence (Q99705 whole entry): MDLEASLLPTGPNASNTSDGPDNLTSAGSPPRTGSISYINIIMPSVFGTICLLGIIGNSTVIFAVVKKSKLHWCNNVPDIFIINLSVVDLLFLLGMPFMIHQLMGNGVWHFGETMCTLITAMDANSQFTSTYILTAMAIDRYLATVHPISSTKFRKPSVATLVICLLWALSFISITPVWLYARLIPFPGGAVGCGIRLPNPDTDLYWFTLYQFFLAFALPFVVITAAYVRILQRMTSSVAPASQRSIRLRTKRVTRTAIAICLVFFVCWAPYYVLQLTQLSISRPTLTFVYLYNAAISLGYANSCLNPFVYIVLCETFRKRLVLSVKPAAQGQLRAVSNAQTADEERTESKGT
Melanin-concentrating hormone receptor 2, sequence (Q969V1 whole entry): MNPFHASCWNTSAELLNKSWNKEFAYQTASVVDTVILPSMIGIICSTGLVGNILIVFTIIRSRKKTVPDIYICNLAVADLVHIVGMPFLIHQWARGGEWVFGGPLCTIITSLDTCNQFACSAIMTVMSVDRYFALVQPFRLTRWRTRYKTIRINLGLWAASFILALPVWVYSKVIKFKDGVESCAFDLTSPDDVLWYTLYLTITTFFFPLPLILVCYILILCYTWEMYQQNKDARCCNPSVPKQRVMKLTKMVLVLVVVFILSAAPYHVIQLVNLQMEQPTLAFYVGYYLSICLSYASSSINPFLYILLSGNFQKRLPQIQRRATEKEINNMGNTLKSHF
Sodium channel protein type 5 subunit alpha, sequence (Q14524 whole entry): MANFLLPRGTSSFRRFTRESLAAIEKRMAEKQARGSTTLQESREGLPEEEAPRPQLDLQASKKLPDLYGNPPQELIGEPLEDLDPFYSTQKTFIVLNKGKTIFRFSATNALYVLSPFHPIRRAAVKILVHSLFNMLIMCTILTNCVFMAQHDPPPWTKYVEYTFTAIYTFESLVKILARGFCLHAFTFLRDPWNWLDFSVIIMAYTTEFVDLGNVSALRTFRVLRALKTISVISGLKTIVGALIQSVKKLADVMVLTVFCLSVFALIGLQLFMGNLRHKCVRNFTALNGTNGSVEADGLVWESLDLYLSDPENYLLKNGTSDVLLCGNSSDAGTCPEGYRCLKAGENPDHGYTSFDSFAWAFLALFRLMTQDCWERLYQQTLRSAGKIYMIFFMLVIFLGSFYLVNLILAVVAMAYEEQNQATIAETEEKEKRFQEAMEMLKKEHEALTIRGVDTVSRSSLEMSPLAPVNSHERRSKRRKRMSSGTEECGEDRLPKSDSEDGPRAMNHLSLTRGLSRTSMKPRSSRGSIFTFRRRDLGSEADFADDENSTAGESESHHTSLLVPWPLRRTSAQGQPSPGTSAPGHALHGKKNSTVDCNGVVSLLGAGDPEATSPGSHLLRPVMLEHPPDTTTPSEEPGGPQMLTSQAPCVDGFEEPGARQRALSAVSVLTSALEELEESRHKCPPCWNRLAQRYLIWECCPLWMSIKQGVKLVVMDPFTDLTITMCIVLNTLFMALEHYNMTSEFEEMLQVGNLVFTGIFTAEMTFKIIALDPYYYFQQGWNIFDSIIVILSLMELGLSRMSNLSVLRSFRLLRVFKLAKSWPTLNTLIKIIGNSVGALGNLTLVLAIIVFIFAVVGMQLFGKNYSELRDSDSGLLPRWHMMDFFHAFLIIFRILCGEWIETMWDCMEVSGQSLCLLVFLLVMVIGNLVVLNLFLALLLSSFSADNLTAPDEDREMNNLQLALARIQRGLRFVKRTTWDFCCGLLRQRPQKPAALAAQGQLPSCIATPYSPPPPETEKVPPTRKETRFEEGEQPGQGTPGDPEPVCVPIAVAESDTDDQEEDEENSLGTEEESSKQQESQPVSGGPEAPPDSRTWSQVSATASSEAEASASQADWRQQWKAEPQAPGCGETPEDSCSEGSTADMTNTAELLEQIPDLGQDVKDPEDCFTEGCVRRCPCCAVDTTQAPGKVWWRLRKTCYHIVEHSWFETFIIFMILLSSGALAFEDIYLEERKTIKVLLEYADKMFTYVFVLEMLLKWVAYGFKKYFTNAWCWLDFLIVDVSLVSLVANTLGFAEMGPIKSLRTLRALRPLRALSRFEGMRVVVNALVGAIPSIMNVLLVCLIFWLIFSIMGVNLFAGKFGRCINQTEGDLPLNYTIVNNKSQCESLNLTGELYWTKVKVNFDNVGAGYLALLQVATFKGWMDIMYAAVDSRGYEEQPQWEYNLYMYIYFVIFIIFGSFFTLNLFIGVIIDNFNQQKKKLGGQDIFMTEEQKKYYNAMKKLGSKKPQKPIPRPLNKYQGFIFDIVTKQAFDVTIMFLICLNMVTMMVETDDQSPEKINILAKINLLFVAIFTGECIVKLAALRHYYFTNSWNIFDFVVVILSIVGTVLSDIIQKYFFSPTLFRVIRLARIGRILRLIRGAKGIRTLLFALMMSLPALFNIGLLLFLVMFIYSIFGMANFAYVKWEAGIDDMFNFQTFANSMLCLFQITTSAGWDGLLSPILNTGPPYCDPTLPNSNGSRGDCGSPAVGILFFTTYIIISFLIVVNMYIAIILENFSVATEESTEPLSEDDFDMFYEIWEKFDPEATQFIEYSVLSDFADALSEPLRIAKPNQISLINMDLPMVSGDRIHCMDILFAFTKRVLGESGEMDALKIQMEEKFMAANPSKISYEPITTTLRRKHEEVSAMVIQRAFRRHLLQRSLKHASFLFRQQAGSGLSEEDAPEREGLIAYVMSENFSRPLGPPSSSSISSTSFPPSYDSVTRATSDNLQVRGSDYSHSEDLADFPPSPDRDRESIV

On to `O=C(CC1CCN(Cc2ccn(-c3ccc(C(F)(F)F)cn3)c2)CC1)NC(c1ccc(F)cc1)c1ccc(F)cc1`, for which the pKa in data set [1] amounted to 9.1. The IC50 in data set [2] came out at 17 nM; in data set [3], 13 nM. The Activity in the data set with Mus musculus is recorded as 18.2%.

For `O=C(CC1CCN(Cc2ccn(-c3ccc(C(F)(F)F)cc3)c2)CC1)NC(c1ccc(F)cc1)c1ccc[n+]([O-])c1` (stereo not given), the IC50 was above 31600 nM in data set [4] and 21 nM in data set [3].

In the data set with Liver microsomes, `O=C(CC1CCN(Cc2ccn(-c3ccc(C(F)(F)F)cc3)c2)CC1)NC(c1ccc(F)cc1)c1c[nH]c(=O)c(Cl)c1` (stereo not given) had a clearance below 15 µL/min/mg. In addition, the IC50 in [2] is 21 nM; in [4] it was above 31600 nM; in data set [5], above 31600 nM; in [6], 4600 nM; in [3] it was 6 nM.

For `O=C(CN1CCN(Cc2ccn(-c3ccc(C(F)(F)F)cn3)c2)CC1)NC(c1ccc(F)cc1)c1ccc(F)cc1`, in [1], the pKa is 6.5. Besides, the IC50 in data set [4] is 800 nM; in data set [3] it was 55 nM.

In the case of `O=C(CC1CCN(Cc2ccn(-c3ccc(C(F)(F)F)cc3)c2)CC1)N(CCCO)Cc1ccc(F)cc1`, the IC50 in data set [4] is 630 nM; in [3], 4 nM.

For `COCC(O)CN(Cc1ccc(F)cc1)C(=O)CC1CCN(Cc2ccc(-c3ccc(Cl)cc3)o2)CC1` (stereo not given), the values for the IC50 in data set [4] and in data set [3] were 1090 nM and 150 nM, respectively.

With `CCCCC(NC(=O)CC1CCN(Cc2ccn(-c3ccc(C(F)(F)F)cc3)c2)CC1)c1ccc(OC)nc1` (stereo not given), the results for the half-maximal inhibitory concentration (IC50) in data set [4] and in data set [3] were 1000 nM and 5 nM, respectively.

In the case of `O=C(NCc1ccc(O)cc1Cl)C1CCN(Cc2ccn(-c3ccc(C(F)(F)F)cc3)c2)CC1`, in [3], the IC50 is 30 nM.

In the case of `Cn1cccc1CNC(=O)CC1CCN(Cc2ccn(-c3ccc(C(F)(F)F)cc3)c2)CC1`, in [3], the IC50 was 313 nM.

In turn, `CN(CCC(=O)N1CCCC1)C(=O)CC1CCN(Cc2ccn(-c3ccc(C(F)(F)F)cc3)c2)CC1` yielded a half-maximal inhibitory concentration (IC50) in data set [3] of 142 nM.

`O=C(CC1CCN(Cc2ccn(-c3ccc(C(F)(F)F)cc3)c2)CC1)NC(c1ccncc1)c1ccc(Cl)cc1` (stereo not given) gave an IC50 in data set [3] of 17 nM.

On to `COc1ccc(C(NC(=O)CC2CCN(Cc3ccn(-c4ccc(C(F)(F)F)cc4)c3)CC2)c2ccc(F)cc2)cn1` (stereo not given), for which the IC50 in data set [4] is 1750 nM; in data set [3], 2 nM.

In the case of `O=C(CC1CCN(Cc2ccn(-c3ccc(C(F)(F)F)cc3)c2)CC1)NC(c1ccc(F)cc1)c1ccc(=O)[nH]c1` (stereo not given), the IC50 is 25 nM in data set [2], above 31600 nM in [4] and 2 nM in data set [3].

With `O=C(NCc1ccc(Cl)cc1Cl)N1CCN(Cc2ccn(-c3ccc(C(F)(F)F)cc3)c2)CC1`, the pKa in data set [1] amounted to 6.2. The 50% inhibitory concentration (IC50) in [7] worked out at 1600 nM; in [3], 8 nM.

For the compound `O=C(CC1CCN(Cc2ccc(-c3ccc(Cl)cc3)o2)CC1)NCC(O)C(F)(F)F` (stereo not given), the concentration for half-maximal inhibition (IC50) was found to be 1020 nM in data set [4] and 815 nM in data set [3].

`O=C(NCC1(O)CCCCC1)C1CCN(Cc2ccn(-c3ccc(C(F)(F)F)cc3)c2)CC1`: the IC50 in [4] stood at 11700 nM; in [3] it was 40 nM.

`O=C(NC1CCN(Cc2ccn(-c3ccc(C(F)(F)F)cc3)c2)CC1)NC(c1ccccc1)c1ccccc1` registered a pKa in data set [1] of 9.2. Further, the IC50 turned out to be 3800 nM in [4] and 39 nM in data set [3].

Consider `O=C(NCc1ccc(Cl)cc1O)C1CCN(Cc2ccn(-c3ccc(C(F)(F)F)cc3)c2)CC1`, for which the IC50 was 1550 nM in data set [4] and 22 nM in data set [3].

In the case of `O=C(C1CCCCN1C(=O)CC1CCN(Cc2ccn(-c3ccc(C(F)(F)F)cc3)c2)CC1)N1CCCC1` (stereo not given), in data set [3], the IC50 is 66 nM.

`O=C(CC1CCN(Cc2ccn(-c3ccc(C(F)(F)F)cc3)c2)CC1)NC(c1ccccc1)c1cnc[nH]1` (stereo not given): the IC50 is 11400 nM in data set [4] and 17 nM in [3].

`O=C(NCc1ccc(Cl)cc1Cl)C1CCN(Cc2ccn(-c3ccc(C(F)(F)F)cn3)c2)CC1` displayed a pKa in [1] of 8.3. The IC50 in data set [7] stood at 3500 nM; in data set [3], 444 nM.

As to `O=C(NCCc1ccccn1)C1CCN(Cc2ccn(-c3ccc(C(F)(F)F)cc3)c2)CC1`, the IC50 in data set [4] worked out at 10000 nM; in data set [3], 339 nM.

Consider `CCN(CC)C(=O)C1CCCN(C(=O)CC2CCN(Cc3ccn(-c4ccc(C(F)(F)F)cc4)c3)CC2)C1` (stereo not given), for which the IC50 came to 16000 nM in data set [4] and 37 nM in data set [3].

As to `Cc1nccn1CC(NC(=O)CC1CCN(Cc2ccn(-c3ccc(C(F)(F)F)cc3)c2)CC1)c1ccccc1` (stereo not given), the IC50 in data set [4] was 26600 nM; in data set [3], 65 nM.

Consider `O=C(CC1CCN(Cc2ccn(-c3ccc(C(F)(F)F)cc3)c2)CC1)NC(c1ccccc1)c1ccccn1` (stereo not given), for which the IC50 in [4] was 2300 nM; in data set [3], 41 nM.

`O=C(NCc1c(O)cc(Cl)cc1Cl)C1CCN(Cc2ccn(-c3ccc(C(F)(F)F)cc3)c2)CC1` showed an IC50 in data set [3] of 144 nM.

On to `CCCCC(NC(=O)CC1CCN(Cc2ccn(-c3ccc(C(F)(F)F)cc3)c2)CC1)c1ccc(=O)[nH]c1` (stereo not given), for which the IC50 in data set [2] worked out at 19 nM; in data set [3] it was 1 nM.

As for `O=C(CC1CCN(Cc2ccn(-c3ccc(C(F)(F)F)cc3)c2)CC1)N1CCN(C(=O)N2CCCC2)CC1`, the half-maximal inhibitory concentration (IC50) in data set [4] came to 14000 nM; in [3], 417 nM.

With `O=C(CC1CCN(Cc2ccn(-c3ccc(C(F)(F)F)cc3)c2)CC1)N1CCOC(C(=O)N2CCCC2)C1` (stereo not given), the IC50 in data set [3] stood at 173 nM.

Turning to `O=C(CC1CCN(Cc2ccn(-c3ccc(C(F)(F)F)cc3)c2)CC1)N1CCCC(C(=O)N2CCCC2)C1` (stereo not given), the results for the IC50 in data set [4] and in [3] were 31000 nM and 71 nM, respectively.

On to `CC(NC(=O)CC1CCN(Cc2ccn(-c3ccc(C(F)(F)F)cc3)c2)CC1)c1ccc(=O)[nH]c1` (stereo not given), for which the values for the IC50 in [4] and in [3] were above 31600 nM and 67 nM, respectively.

In the case of `O=C(CC1CCN(Cc2ccc(-c3ccc(Cl)cc3)o2)CC1)N1CCCC(CO)C1` (stereo not given), the IC50 in [4] is 2340 nM; in [3], 597 nM.

In the case of `O=C(CC1CCN(Cc2ccn(-c3ccc(C(F)(F)F)cc3)c2)CC1)NC(c1ccc(F)cc1)c1cccnc1` (stereo not given), the IC50 in [4] was found to be 2170 nM; in data set [3], 28 nM.

By pKa is commonly meant the negative logarithm of the acid dissociation constant. What is called IC50 is the point on the concentration scale where inhibition reaches its midpoint.
